According to US20210045385A1, “PYRIDAZINONE-SUBSTITUTED KETOXIMES AS HERBICIDES” (FMC Corporation, priority 2018, published 2021):

Tests used:
Type in all cases: in vivo
[1] = system: barnyardgrass (Echinochloa crus-galli); experiment: Test B flooded paddy test, visual plant response rating; settings: 250 g ai/ha, Flood, applied to paddy water, 2-leaf stage, evaluated after 13 to 15 days
How it was run: (§1)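 Test pots are flooded 3 cm above the soil at treatment, and the test substance is introduced into this standing water. After keeping the flood level and growing plants, treated at the 2-leaf stage, for 13 to 15 days under glass, injury is assessed visually versus controls.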

rice (Oryza sativa) = experiment: as above; settings: 250 g ai/ha, Flood, applied to paddy water, 2-leaf stage, evaluated after 13 to 15 days
How it was run: as §1

[2] = system: sedge, umbrella (small-flower umbrella sedge, Cyperus difformis); experiment: as above; settings: 250 g ai/ha, Flood, applied to paddy water, 2-leaf stage, evaluated after 13 to 15 days
How it was run: as §1

[3] = system: ducksalad (Heteranhera limosa); experiment: as above; settings: 250 g ai/ha, Flood, applied to paddy water, 2-leaf stage, evaluated after 13 to 15 days
How it was run: as §1

[4] = system: ragweed (common ragweed, Ambrosia elatior); experiment: Test A preemergence, visual plant response rating; settings: for Ragweed plant response rating: 125 g ai/ha, preemergence, 0 to 100 scale, 0 no effect, 100 complete control; for Ragweed plant response rating (0 to 100 scale): 500 g ai/ha Preemergence, approx. 10 days
How it was run: (§2)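 Greenhouse pot test in loam–sand soil mix: compound in a surfactant-containing non-phytotoxic solvent applied preemergence (directed soil spray) or postemergence (one- to two-leaf plants, 2–10 cm). Injury scored visually after ~10 days, 0–100.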

[5] = system: barnyardgrass (Echinochloa crus-galli); experiment: Test A preemergence, visual plant response rating; settings: for Barnyardgrass plant response rating: 125 g ai/ha, preemergence, 0 to 100 scale, 0 no effect, 100 complete control; for Barnyardgrass plant response rating (0 to 100 scale): 500 g ai/ha Preemergence, approx. 10 days
How it was run: as §2

[6] = system: foxtail, giant (giant foxtail, Setaria faberii); experiment: Test A preemergence, visual plant response rating; settings: for Foxtail, Giant plant response rating: 125 g ai/ha, preemergence, 0 to 100 scale, 0 no effect, 100 complete control; for Foxtail, Giant plant response rating (0 to 100 scale): 500 g ai/ha Preemergence, approx. 10 days
How it was run: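 Formulated in a non-phytotoxic solvent mixture including surfactant, each test chemical was sprayed onto the soil surface after sowing, or onto seedlings 2 to 10 cm high. Roughly 10 days later, plants were compared with untreated controls and rated for injury from 0 (no effect) to 100 (complete control).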

kochia (Kochia scoparia) [7] = experiment: Test A preemergence, visual plant response rating; settings: for Kochia plant response rating: 125 g ai/ha, preemergence, 0 to 100 scale, 0 no effect, 100 complete control; for Kochia plant response rating (0 to 100 scale): 500 g ai/ha Preemergence, approx. 10 days
How it was run: as §2

[8] = system: pigweed (Amaranthus retroflexus); experiment: Test A preemergence, visual plant response rating; settings: for Pigweed plant response rating: 125 g ai/ha, preemergence, 0 to 100 scale, 0 no effect, 100 complete control; for Pigweed plant response rating (0 to 100 scale): 500 g ai/ha Preemergence, approx. 10 days
How it was run: as §2

[9] = system: Italian ryegrass (Lolium multiflorum); experiment: Test A preemergence, visual plant response rating; settings: for Ryegrass, Italian plant response rating: 125 g ai/ha, preemergence, 0 to 100 scale, 0 no effect, 100 complete control; for Ryegrass, Italian plant response rating (0 to 100 scale): 500 g ai/ha Preemergence, approx. 10 days
How it was run: as §2

[10] = system: ragweed (common ragweed, Ambrosia elatior); experiment: Test A postemergence, visual plant response rating; settings: for Ragweed plant response rating (0 to 100 scale): 500 g ai/ha, postemergence, 0 is no effect, 100 is complete control; for Ragweed plant response rating: Postemergence, 125 g ai/ha, 0 to 100 scale (0 no effect, 100 complete control)
How it was run: as §2

[11] = system: barnyardgrass (Echinochloa crus-galli); experiment: Test A postemergence, visual plant response rating; settings: for Barnyardgrass plant response rating (0 to 100 scale): 500 g ai/ha, postemergence, 0 is no effect, 100 is complete control; for Barnyardgrass plant response rating: Postemergence, 125 g ai/ha, 0 to 100 scale (0 no effect, 100 complete control)
How it was run: as §2

[12] = system: foxtail, giant (giant foxtail, Setaria faberii); experiment: Test A postemergence, visual plant response rating; settings: for Foxtail, Giant plant response rating (0 to 100 scale): 500 g ai/ha, postemergence, 0 is no effect, 100 is complete control; for Foxtail, Giant plant response rating: Postemergence, 125 g ai/ha, 0 to 100 scale (0 no effect, 100 complete control)
How it was run: as §2

[13] = system: wheat (Triticum aestivum); experiment: Test A postemergence, visual plant response rating; settings: for Wheat plant response rating: 0 to 100 scale (0 no effect, 100 complete control)
How it was run: as §2

[14] = system: blackgrass (Alopecurus myosuroides); experiment: Test A postemergence, visual plant response rating; settings: for Blackgrass plant response rating (0 to 100 scale): 500 g ai/ha, postemergence, 0 is no effect, 100 is complete control; for Blackgrass plant response rating: Postemergence, 125 g ai/ha, 0 to 100 scale (0 no effect, 100 complete control)
How it was run: as §2

kochia (Kochia scoparia) [15] = experiment: Test A postemergence, visual plant response rating; settings: for Kochia plant response rating (0 to 100 scale): 500 g ai/ha, postemergence, 0 is no effect, 100 is complete control; for Kochia plant response rating: Postemergence, 125 g ai/ha, 0 to 100 scale (0 no effect, 100 complete control)
How it was run: as §2

corn (Zea mays) = experiment: Test A postemergence, visual plant response rating; settings: for Corn plant response rating (0 to 100 scale): 500 g ai/ha, postemergence, 0 is no effect, 100 is complete control; for Corn plant response rating: Postemergence, 125 g ai/ha, 0 to 100 scale (0 no effect, 100 complete control)
How it was run: as §2

[16] = system: pigweed (Amaranthus retroflexus); experiment: Test A postemergence, visual plant response rating; settings: for Pigweed plant response rating (0 to 100 scale): 500 g ai/ha, postemergence, 0 is no effect, 100 is complete control; for Pigweed plant response rating: Postemergence, 125 g ai/ha, 0 to 100 scale (0 no effect, 100 complete control)
How it was run: as §2

[17] = system: Italian ryegrass (Lolium multiflorum); experiment: Test A postemergence, visual plant response rating
How it was run: as §2

[18] = system: galium (catchweed bedstraw, Galium aparine); experiment: Test A postemergence, visual plant response rating; settings: for Galium plant response rating (0 to 100 scale): 500 g ai/ha, postemergence, 0 is no effect, 100 is complete control; for Galium plant response rating: Postemergence, 125 g ai/ha, 0 to 100 scale (0 no effect, 100 complete control)
How it was run: as §2

[19] = 500 g ai/ha, postemergence, 0 is no effect, 100 is complete control
[20] = Postemergence, rate not given, approx. 10 days

Row | SMILES | Plant response rating, Barnyardgrass (0 to 100 scale, 0 is no effect, 100 is complete control) [1] | Plant response rating, Rice (0 to 100 scale, 0 is no effect, 100 is complete control) (rice (Oryza sativa)) | Plant response rating, Sedge, Umbrella (0 to 100 scale, 0 is no effect, 100 is complete control) [2] | Plant response rating, Ducksalad (0 to 100 scale, 0 is no effect, 100 is complete control) [3] | Ragweed plant response rating [4] | Ragweed plant response rating (0 to 100 scale) [4] | Barnyardgrass plant response rating [5] | Barnyardgrass plant response rating (0 to 100 scale) [5] | Foxtail, Giant plant response rating [6] | Foxtail, Giant plant response rating (0 to 100 scale) [6] | Kochia plant response rating (kochia (Kochia scoparia) [7]) | Kochia plant response rating (0 to 100 scale) (kochia (Kochia scoparia) [7]) | Pigweed plant response rating [8] | Pigweed plant response rating (0 to 100 scale) [8] | Ryegrass, Italian plant response rating [9] | Ryegrass, Italian plant response rating (0 to 100 scale) [9] | Ragweed plant response rating (0 to 100 scale) [10] | Ragweed plant response rating [10] | Barnyardgrass plant response rating (0 to 100 scale) [11] | Barnyardgrass plant response rating [11] | further results
1 | CON=C(c1cc(Cl)ccc1C)c1c(O)c(C)nn(C)c1=O [Compound 65] | 0 | 0 | 0 | 0 | 20 | 100 | 20 | 50 | 20 | 40 | 0 | 30 | 50 | 100 | 0 | 30 | 80 | 60 | 40 | 30 | Foxtail, Giant plant response rating (0 to 100 scale) [12]: 70; Foxtail, Giant plant response rating [12]: 30; Wheat plant response rating (0 to 100 scale) [13, 19]: 20; Wheat plant response rating ([13]; Postemergence, 125 g ai/ha): 0; Blackgrass plant response rating (0 to 100 scale) [14]: 30; Blackgrass plant response rating [14]: 10; Kochia plant response rating (0 to 100 scale) (kochia (Kochia scoparia) [15]): 80; Kochia plant response rating (kochia (Kochia scoparia) [15]): 70; Corn plant response rating (0 to 100 scale) (corn (Zea mays)): 0; Corn plant response rating (corn (Zea mays)): 0; Pigweed plant response rating (0 to 100 scale) [16]: 90; Pigweed plant response rating [16]: 90; Ryegrass, Italian plant response rating (0 to 100 scale) [17, 19]: 90; Ryegrass, Italian plant response rating ([17]; Postemergence, 125 g ai/ha, 0 to 100 scale (0 no effect, 100 complete control)): 50; Galium plant response rating (0 to 100 scale) [18]: 90; Galium plant response rating [18]: 70
2 | CON=C(c1ccc(C)s1)c1c(O)c(C)nn(C)c1=O (mixture of isomers) [Compound 144] | 0 | 0 | 0 | 0 | 0 | 0 | 0 | 0 | 0 | 0 | 0 | 0 | 0 | 0 | 0 | 0 | 30 | 0 | 0 | 0 | Foxtail, Giant plant response rating (0 to 100 scale) [12]: 0; Foxtail, Giant plant response rating [12]: 0; Wheat plant response rating ([13]; Postemergence, 500 g ai/ha): 0; Wheat plant response rating (0 to 100 scale) ([13]; Postemergence, approx. 10 days): 0; Blackgrass plant response rating (0 to 100 scale) [14]: 0; Blackgrass plant response rating [14]: 0; Kochia plant response rating (0 to 100 scale) (kochia (Kochia scoparia) [15]): 0; Kochia plant response rating (kochia (Kochia scoparia) [15]): 0; Corn plant response rating (0 to 100 scale) (corn (Zea mays)): 0; Corn plant response rating (corn (Zea mays)): 0; Pigweed plant response rating (0 to 100 scale) [16]: 10; Pigweed plant response rating [16]: 0; Ryegrass, Italian plant response rating (0 to 100 scale) [17, 19]: 0; Ryegrass, Italian plant response rating (0 to 100 scale) [17, 20]: 0; Galium plant response rating (0 to 100 scale) [18]: 30; Galium plant response rating [18]: 0
3 | CO/N=C(/c1c(O)c(Cl)nn(C)c1=O)c1cccc2ccccc12 [Compound 145, 6-chloro-5-hydroxy-4-[(E)-(methoxyimino)-1-naphthalenylmethyl]-2-methyl-3(2H)-pyridazinone] | 0 | 0 | 0 | 0 | 100 | 100 | 60 | 80 | 50 | 80 | 70 | 90 | 50 | 90 | 0 | 10 | 100 | 100 | 60 | 30 | Foxtail, Giant plant response rating (0 to 100 scale) [12]: 60; Foxtail, Giant plant response rating [12]: 30; Wheat plant response rating ([13]; Postemergence, 500 g ai/ha): 0; Wheat plant response rating (0 to 100 scale) ([13]; Postemergence, approx. 10 days): 0; Blackgrass plant response rating (0 to 100 scale) [14]: 70; Blackgrass plant response rating [14]: 30; Kochia plant response rating (0 to 100 scale) (kochia (Kochia scoparia) [15]): 90; Kochia plant response rating (kochia (Kochia scoparia) [15]): 80; Corn plant response rating (0 to 100 scale) (corn (Zea mays)): 0; Corn plant response rating (corn (Zea mays)): 0; Pigweed plant response rating (0 to 100 scale) [16]: 80; Pigweed plant response rating [16]: 30; Ryegrass, Italian plant response rating (0 to 100 scale) [17, 19]: 10; Ryegrass, Italian plant response rating (0 to 100 scale) [17, 20]: 20; Galium plant response rating (0 to 100 scale) [18]: 100; Galium plant response rating [18]: 90
